Patent US8906953B2, “Pyrrolidine substitute flavones for the treatment of inflammatory disorders” (Piramal Enterprises Limited, priority 2010, dated 2014)
pIC50: −log10 of the molar value.

Key:
Assay type in all cases: cell-based
[1] = test system: IL-1β; experiment: LPS-induced IL-1β release from hPBMCs (ELISA); settings: Homo sapiens
Procedure: (§1) Cytokine production by lipopolysaccharides (LPS) in hPBMCs (human peripheral blood mononuclear cells) was measured as in reference, Physiol. Res. 2003, 52, 593-598, the disclosure of which is incorporated by reference for the teaching of the assay. Blood was collected from healthy donors into Potassium EDTA vacutainer tubes (BID vacutainer). The PBMC were isolated using gradient centrifugation in Histopaque-1077 solution (Sigma). Isolated PBMC were suspended in RPMI 1640 (Rosewell Park Memorial Institute) culture medium (Sigma-Aldrich Fine Chemicals, USA) containing 10% fetal bovine serum (FBS) (JRH, USA), 100 U/mL penicillin (Sigma Chemical Co. St Louis, Mo., USA) and 100 μg/mL streptomycin (Sigma Chemical Co. St Louis, Mo.). The cell concentration was adjusted to 1×10^6 cells/mL. The viability as determined by trypan blue dye exclusion was uniform Ly≧98%. The cell suspension (100 μL) was added to the wells of a 96-well culture plate. Following cell plating, 79 μL of the culture medium and 1 μL of various concentrations of test compounds (compounds of formula 1) (final concentration 0.001, 0.003, 0.005, 0.01, 0.025, 0.03, 0.05, 0.1, 0.25, 0.3 and 1 μM) dissolved in DMSO (dimethyl sulfoxide, Sigma, Mo., USA) were added to the cells. The final concentration of DMSO was adjusted to 0.5%. The vehicle (0.5% DMSO) was used as control. […]

[2] = test system: IL-6; experiment: LPS-induced IL-6 release from hPBMCs (ELISA); settings: Homo sapiens
Procedure: as §1

[3] = test system: VCAM-1; experiment: TNF-α induced cell surface expression of VCAM-1 on HUVECs; settings: Homo sapiens, HUVEC; TNF-α (1 ng/mL) stimulated HUVECs, 6 hours, n=2
Procedure: The assay was designed as in reference, Transplantation, 1997, 63(5), 759-764, the disclosure of which is incorporated herein by reference for the teaching of the assay.
Human umbilical vein endothelial cells (HUVECs) were obtained from Cascade Biologics (Oregon-USA). Cells were cultured in M-200 medium (Cascade Biologics) supplemented with low serum growth supplements (LSGS) (Cascade Biologics), penicillin-G (100 U/mL), streptomycin (100 μg/mL) and amphotericin B (50 ng/mL) (GIBCO). […] After TNF-α stimulation (1 ng/mL) (R&D Systems (Minneapolis, Minn.)) for 4 hours at 37° C. in an atmosphere of 5% CO2, supernatants were harvested and assayed for the expression of ICAM-1 (intercellular cell adhesion molecules), whereas the expressions of VCAM-1 (vascular cell adhesion molecules) and E-selectin were evaluated after 6 hours of stimulation. […] To quantitatively measure the amount of cell surface expressions of ICAM-1, VCAM-1 and E-selectin, ELISA assay was performed using anti-ICAM-1 (clone BBIG-I1), anti-VCAM-1 (clone BBIG-V1), anti-E-selectin (clone BBIG-E4) antibodies, isotype control mouse IgG1 (clone 11711.11) and the secondary antibody (anti-mouse IgG-HRP antibody) which were procured from R&D Systems (Minneapolis, Minn., USA). […]

## CN1CC[C@@H](c2c(O)cc(O)c3c(=O)cc(-c4ccc(C(F)(F)F)cc4Cl)oc23)[C@@H]1CO.Cl [Compound of example 3, (+)-trans-2-(2-Chloro-4-trifluoromethyl-phenyl)-5,7-dihydroxy-8-(2-hydroxymethyl-1-methyl-pyrrolidin-3-yl)-chromen-4-one hydrochloride]
[1]
  pIC50: 7.00
[2]
  pIC50: 7.00
[3]
  pIC50: 6.55
